Results reported in US20240150293A1, “SPIROCYCLOHEXANE DERIVATIVES, PHARMACEUTICAL COMPOSITIONS CONTAINING THEM AND THEIR USES AS ANTI-APOPTOTIC INHIBITORS” (LES LABORATOIRES SERVIER, priority 2021, published 2024).

How the values were obtained:
[1] = test system: AMO-1 multiple myeloma xenografts; test: Anti-tumor activity in vivo (Example D); parameters: species or system SCID mice
Procedure: The anti-tumor activity of the compounds of the invention was evaluated using AMO-1 multiple myeloma xenografts.
1×10^7 cells were subcutaneously grafted into immunosuppressed SCID mice. 7-10 days later, when the tumor mass had reached an average volume of about 150 mm^3, mice were treated with the various compounds once a week for 2 weeks (per os, HEC 1%/Tween 80 99:1). Tumor size was measured three times per week using electronic calipers.
At the end of the treatment cycle (d9), tumor growth inhibition (TGI) was calculated using the formula: […]
wherein DTV (Delta Tumor Volume) at Dx was calculated as follows: […]
(Tumor Volume at Dx)−(Tumor Volume at Randomization).

[2] = molecular target: Cy5-labelled Mcl1 (amino acids 171-321) C286S protein (UniProtKB Q07820) (Homo sapiens (Human), UniProt Q07820, C286S); test: Inhibition of Mcl-1 by the fluorescence quenching assay (Example A, Method B); format: binding
Sequence of Cy5-labelled Mcl1 (amino acids 171-321) C286S protein (Q07820 171-321 C286S): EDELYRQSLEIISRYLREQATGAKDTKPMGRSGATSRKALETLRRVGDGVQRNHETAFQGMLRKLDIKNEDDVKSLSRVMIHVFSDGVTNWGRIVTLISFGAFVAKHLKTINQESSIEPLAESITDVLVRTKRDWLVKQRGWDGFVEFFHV
Procedure, shortened: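 Cy5-labelled Mcl1 171-321 C286S (1 nM) quenched by TQ5WS-labelled PUMA peptide (10, 20 or 400 nM); displacement raises fluorescence (Ex 620/Em 680 nm). Buffer 10 mM HEPES, 150 mM NaCl, 0.05% Tween 20, pH 7.4, 5% DMSO; 2 h at room temperature, 11-point curves, IC50 converted to Ki (cKi/eKi).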

[3] = test system: AMO-1 multiple myeloma xenograft; test: Quantification of the cleaved form of PARP in vivo, IV (Example E); parameters: species or system SCID mice; settings: single dose
Procedure: (§1) The ability of the compounds of the invention to induce apoptosis was evaluated in vivo using the AMO-1 multiple myeloma xenograft.
(§2) 1×10^7 cells were subcutaneously grafted into immunosuppressed SCID mice. 12-14 days later, when tumors had reached the appropriate volume, mice (3 per group) were treated once with the various compounds (IV). Tumor samples were recovered 6 or 16 hours after dosing and lysed. Cleared lysates were used for cleaved PARP quantification (as a marker of apoptosis induction) using the Meso Scale Discovery (MSD) Elisa platform test. Results are expressed as the ratio between cleaved PARP in treated mice over control mice.

[4] = test system: AMO-1 multiple myeloma xenograft; test: Quantification of the cleaved form of PARP in vivo, per os (Example C); parameters: species or system SCID mice; settings: single dose per os, tumors recovered 16 hours after dosing
Procedure: as §1
as §2, with “(per os, HEC 1%/Tween 80 99:1).” for “(IV).”, “recovered” for “recovered 6 or”

NCI-H929 cell lines = test: In vitro cytotoxicity, CellTiter-Glo (CTG) assay (Example B, Method B); format: cell-based; settings: Homo sapiens, NCI-H929, 48 h, NCI-H929 cells, 48 h incubation, read-out: C50
Procedure, shortened: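 NCI-H929 cells exposed to an 11-point compound series from 10 mM DMSO stocks (top final 30 μM) for 48 h at 37° C., 5% CO2. Viability measured as ATP by CellTiter-Glo luminescence; C50 is the concentration giving 50% cellular viability.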

[5] = 60 mpk per os once a week for 2 weeks
[6] = 30 mpk per os once a week for 2 weeks

| SMILES | % TGI (d9) [1, 5] [%] | Ki [2] [nM] | Cleaved PARP (fold to control) ([3]; 15 mpk IV, time-point 6 h) | Cleaved PARP (fold to control) ([3]; 30 mpk IV, time-point 6 h) | Cleaved PARP (fold to control) ([3]; 30 mpk IV, time-point 16 h) | Cleaved PARP (fold to control) ([4]; 30 mpk) | Cleaved PARP (fold to control) ([4]; 60 mpk) | IC50 (NCI-H929 cell lines) [nM] | Cleaved PARP (fold to control) ([3]; 7.5 mpk IV, time-point 6 h) | % TGI (d9) [1, 6] [%] | % TGI (d9) ([1]; 120 mpk per os once a week for 2 weeks) [%] | Cleaved PARP (fold to control) ([4]; 120 mpk) |
| --- | --- | --- | --- | --- | --- | --- | --- | --- | --- | --- | --- | --- |
| COCc1ccc2c(c1)[C@]1(CC[C@@](Nc3cccc(Cl)c3)(C(=O)O)CC1)[C@@H](C[C@@H](C)COc1ccnc3c1[C@H](C)CCC3)C2 [Example 919, (1r,2′S,4S)-4-(3-chloroanilino)-6′-(methoxymethyl)-2′-[(2R)-2-methyl-3-{[(5R)-5-methyl-5,6,7,8-tetrahydroquinolin-4-yl]oxy}propyl]-2′,3′-dihydrospiro[cyclohexane-1,1′-indene]-4-carboxylic acid] | 121 | 0.0267 | 185.6 fold to control | 199.9 fold to control | 69.7 fold to control | 6.7 fold to control | 9.7 fold to control | 38.9 | – | – | – | – |
| Cc1c(Cl)cccc1N[C@]1(C(=O)O)CC[C@]2(CC1)c1cc3c(cc1C[C@@H]2C[C@@H](C)COc1ccnc2c1[C@H](C)CCC2)OCO3 [Example 847, (1r,4S,6′S)-4-(3-chloro-2-methylanilino)-6′-[(2R)-2-methyl-3-{[(5R)-5-methyl-5,6,7,8-tetrahydroquinolin-4-yl]oxy}propyl]-6′,7′-dihydro-2′H-spiro[cyclohexane-1,5′-indeno[5,6-d][1,3]dioxole]-4-carboxylic acid] | – | 0.0847 | 215 fold to control | – | – | – | – | 64.3 | 185.9 fold to control | – | – | – |
| C[C@@H](COc1ccnc2c1[C@H](C)CCC2)C[C@H]1Cc2cc3c(cc2[C@]12CC[C@@](Nc1cccc(Cl)c1)(C(=O)O)CC2)OCO3 [Example 840, (1r,4S,6′S)-4-(3-chloroanilino)-6′-[(2R)-2-methyl-3-{[(5R)-5-methyl-5,6,7,8-tetrahydroquinolin-4-yl]oxy}propyl]-6′,7′-dihydro-2′H-spiro[cyclohexane-1,5′-indeno[5,6-d][1,3]dioxole]-4-carboxylic acid] | 119.8 | 0.0554 | 127.8 fold to control | 166.3 fold to control | 138.2 fold to control | 19.2 fold to control | 29.4 fold to control | 30.5 | – | 83.8 | – | – |
| CCOc1ccc2c(c1)[C@]1(CC[C@@](Nc3cccc(Cl)c3)(C(=O)O)CC1)[C@@H](C[C@@H](C)COc1ccnc3c1[C@H](C)CCC3)C2 [Example 784, (1r,2′S,4S)-4-(3-chloroanilino)-6′-ethoxy-2′-[(2R)-2-methyl-3-{[(5R)-5-methyl-5,6,7,8-tetrahydroquinolin-4-yl]oxy}propyl]-2′,3′-dihydrospiro[cyclohexane-1,1′-indene]-4-carboxylic acid] | 112 | 0.0801 | 227.5 fold to control | 174.2 fold to control | 129.9 fold to control | – | – | 106 | – | 103.6 | – | – |
| COCCOc1ccc2c(c1)[C@]1(CC[C@@](Nc3cccc(Cl)c3)(C(=O)O)CC1)[C@@H](C[C@@H](C)COc1ccnc3c1[C@H](C)CCC3)C2 [Example 794, (1r,2′S,4S)-4-(3-chloroanilino)-6′-(2-methoxyethoxy)-2′-[(2R)-2-methyl-3-{[(5R)-5-methyl-5,6,7,8-tetrahydroquinolin-4-yl]oxy}propyl]-2′,3′-dihydrospiro[cyclohexane-1,1′-indene]-4-carboxylic acid] | 70.2 | 0.213 | – | – | – | – | 6.8 fold to control | 44.5 | – | – | 51.5 | 12.1 fold to control |
| C[C@@H](COc1ccnc2c1[C@H](C)CCC2)C[C@H]1Cc2cc3c(cc2[C@]12CC[C@@](Nc1ccc(F)c(Cl)c1)(C(=O)O)CC2)OCO3 [Example 845, (1r,4S,6′S)-4-(3-chloro-4-fluoroanilino)-6′-[(2R)-2-methyl-3-{[(5R)-5-methyl-5,6,7,8-tetrahydroquinolin-4-yl]oxy}propyl]-6′,7′-dihydro-2′H-spiro[cyclohexane-1,5′-indeno[5,6-d][1,3]dioxole]-4-carboxylic acid] | 128.3 | 0.0736 | 188.7 fold to control | 158.2 fold to control | 116.4 fold to control | – | – | 38.3 | – | 88.2 | – | – |
